Test results taken from patent US9408853B2, “Iridium/rhodium anti-cancer compounds” (University of Warwick, priority 2010, dated 2016).

Columns and labels:
[1] = test system: human ovarian A2780 cancer cells; assay: Cancer cell cytotoxicity, SRB assay; type: cell-based; conditions: 24 h exposure, 72 h recovery, SRB; read-out: A2780 IC50
Experimental: Cancer Cell Cytotoxicity. After plating, human ovarian A2780 cancer cells were treated with Ir^III complexes on day 3 at concentrations ranging from 0.5 μM to 100 μM. Solutions of the Ir^III complexes were made up in 0.125% DMSO to assist dissolution. Stock solutions of the IrIII complexes were firstly prepared in DMSO to assist dissolution, and then diluted into 0.9% saline and medium. After plating 5000 A2780 cells per well on day 1, IrIII complexes were added to the cancer cells on day 3 at concentrations ranging from 0.05 μM to 100 μM. Cells were exposed to the complexes for 24 h, washed, supplied with fresh medium, allowed to grow for three doubling times (72 h), and then the protein content measured (proportional to cell survival) using the sulforhodamine B (SRB) assay.^15 […]. The standard errors are based on two independent experiments of three replicates each.

colon COLO 205 = assay: NCI screen, single cell line; type: cell-based
Description: (§1) Six complexes, [(η^5-C5Me4C6H4C6H5)Ir(bpy)Cl]PF6 (ZL25, bpy=2,2′-bipyridine), [(η^5-C5Me4C6H5)Ir(phen)Cl]PF6 (ZL33, phen=1,10-phenanthroline), [(η^5-C5Me4C6H4C6H5) Ir(pico)Cl] (ZL43, pico=picolinate), [(η^5-C5Me5)Ir(2-phpy)Cl] (ZL47), [(η^5-C5Me4C6H4C6H5)Ir(2-phPY)(D2O)Cl] (ZL49) and [(η^5-C5Me4C6H4C6H5) Ir(phen)Cl]PF6 (ZL54), were selected by Developmental Therapeutics Program of National Cancer Institute (NCI, U.S.A.) for in vitro screening test, in which 5 complexes except ZL43 are selected for further testing. The five complexes were tested on ca. 60 cell lines within nine tumour type subpanels at five concentrations ranging from 0.01 to 100 μM.

melanoma SK-MEL-5 = assay: NCI screen, single cell line; type: cell-based
Description: as §1

breast MDA-MB-468 = assay: NCI screen, single cell line; type: cell-based
Description: as §1

9-ethylguanine (9-EtG) = assay: Interactions with nucleobases: 9-EtG adduct formation (1H NMR); type: binding; conditions: 24 h; ca. 1.0 mM, 1 mol equiv 9-EtG, 20% MeOD-d4/80% D2O, 310 K
Experimental: Interactions with Nucleobases. The reaction of ZL01, ZL03, ZL04, ZL07, ZL25, ZL33, ZL37, ZL38, ZL43 and ZL54 and ZL33A with nucleobases typically involved addition of a solution containing 1-2 mol equiv of nucleobase in D2O, to an equilibrium solution of ZL01, ZL03, ZL04, ZL07, ZL25, ZL33, ZL37, ZL38, ZL43, ZL54 and ZL33A in a solution of 5% MeOD-d4/95% D2O (v/v). ^1H NMR spectra of these solutions were recorded at 310 K after various time intervals.
Since DNA is a potential target site for transition metal anticancer complexes,^18 nucleobase binding reactions of compounds ZL01, ZL03, ZL04, ZL07, ZL25, ZL33, ZL33A, ZL37, ZL38, ZL43 and ZL54 with nucleobase models 9-ethylguanine (9-EtG) and 9-ethyladenine (9-EtA), were investigated. Solutions of ZL01, ZL03, ZL04, ZL07, ZL25, ZL33, ZL37, ZL38, ZL43 and ZL54 (1 mM) (containing an equilibrium mixture of these complexes and their respective aqua adducts) with 1 mol equivalent of 9-EtG or 9-EtA in D2O were prepared, and ^1H NMR spectra were recorded at different time intervals.
Interactions with Nucleobases. Since DNA is a potential target site for transition metal anticancer complexes,^23 the binding of 9-ethylguanine (9-EtG) to complexes ZL47, ZL49, ZL69, ZL74 and ZL107 was studied.

[2] = test system: ca. 60 cell lines within nine tumour type subpanels; type: cell-based
Description: as §1

[3] = Hydrolysis studies of C,N-chelated complexes and anation by NaCl (1H NMR); type: physicochemical; conditions: 20% MeOD-d4/80% D2O; equilibrium reached within ~5 min even at 278 K
Description: Hydrolysis Studies. The hydrolysis of complexes [(η^5-C5Me5)Ir(2-phpy)Cl] (ZL47), [(η^5-C5Me4C6H4C6H5)Ir(2-phpy)Cl] (ZL49), [(η^5-C5Me5) Ir(2-phq)Cl] (ZL68), [(η^5-C5Me5) Ir(tpy)Cl] (ZL69), [(η^5-C5Me5)Ir(2-dfphpy)Cl] (ZL74) and [(η^5-C5Me4C6H5)Ir(2-phpy) Cl] (ZL107) in 20% MeOD-d4/80% D2O (v/v) was monitored by ^1H NMR at different temperatures. The presence of methanol ensured the solubility of the complexes.

MCF-7 cancer cell line = conditions: cited from earlier work
[4] = test system: human ovarian cancer cell line A2780; conditions: cited from earlier work
[5] = test system: human ovarian cancer cell line A2780cisR (cisplatin-resistant); conditions: cited from earlier work
HT-29 cancer cell line = conditions: cited from earlier work
[6] = test system: A2780 human ovarian cancer cells; assay: Cytotoxicity testing of rhodium complexes; type: cell-based
Experimental: Cytotoxicity testing in A2780 human ovarian cancer cells was performed by Dr Ana Maria Pizarro Arranz at the University of Warwick.

Molecule | IC50 [1] [nM] | guanine adducts formed (9-ethylguanine (9-EtG)) [%] | hydrolysis (in words) [3] | in vitro cytotoxic activity towards MCF-7 (in words) (MCF-7 cancer cell line) | further results
Cc1c(C)c(C)[c-](-c2ccc(-c3ccccc3)cc2)c1C.[Cl-].[Ir+3].[c-]1ccccc1-c1ccccn1 [ZL49, [(η^5-C5Me4C6H4C6H5)Ir(2-phpy)Cl]] | 700 | 100 | rapid hydrolysis |  | GI50 (colon COLO 205): < 200 nM; GI50 (melanoma SK-MEL-5): < 200 nM; GI50 (breast MDA-MB-468): < 200 nM; CC50 [2]: 7080 ± 1050 nM; Mean graph midpoint (MID) TGI ([2]; ca. 60 cell lines, 0.01 to 100 μM): 2190 ± 150 nM; GI50 ([2]; ca. 60 cell lines, 0.01 to 100 μM, read-out: Mean graph midpoint (MID) GI50): 710 ± 10 nM; selectivity among tumour type subpanels (in words) ([2]; mean graphs): selective for leukemia, colon cancer, and melanoma
Cc1c(C)c(C)[c-](C)c1C.[Cl-].[Ir+3].[c-]1ccccc1-c1ccc2ccccc2n1 [ZL68, [(η^5-C5Me5)Ir(2-phq)Cl]] | 2550 ± 30 |  | rapid hydrolysis |  | 
Cc1c(C)c(C)[c-](C)c1C.Cc1c[c-]c(-c2ccccn2)cc1.[Cl-].[Ir+3] [ZL69, [(η^5-C5Me5)Ir(tpy)Cl]] | 3280 ± 140 | 100 | rapid hydrolysis |  | 
Cc1c(C)c(C)[c-](C)c1C.Fc1c[c-]c(-c2ccccn2)c(F)c1.[Cl-].[Ir+3] [ZL74, [(η^5-C5Me5)Ir(2-dfphpy)Cl]] | 6530 ± 500 | 100 | rapid hydrolysis |  | 
Cc1c(C)c(-c2ccccc2)[c-](C)c1C.[Cl-].[Ir+3].[c-]1ccccc1-c1ccccn1 (centres unmarked) [ZL107, [(η^5-C5Me4C6H5)(2-phpy)Cl]] | 2140 ± 500 | 100 | rapid hydrolysis |  | 
Cc1c(C)c(C)[c-](C)c1C.NCCN.O=S(=O)([O-])C(F)(F)F.[Cl-].[Ir+3] [[(η^5-C5Me5) Ir(en)Cl](CF3SO3)] |  |  |  | inactive | 
Cc1c(C)c(C)[c-](C)c1C.[Cl-].[Ir+3].c1ccc(-c2nccs2)nc1 [[(η^5-C5Me5)Ir (pyTz)Cl]^+] |  |  |  |  | activity towards A2780 (in words) [4]: inactive; activity towards A2780cisR (in words) [5]: inactive
CN(C)C(=S)N(C)C.Cc1c(C)c(C)[c-](C)c1C.O=S(=O)([O-])C(F)(F)F.O=S(=O)([O-])C(F)(F)F.[Ir+3].c1ccc2cc3nc4c5cccnc5c5ncccc5c4nc3cc2c1 [[(η^5-C5Me5)Ir((NMe2)2CS)(dppn)](CF3SO3)2] |  |  |  | possess in vitro cytotoxic activity | in vitro cytotoxic activity towards HT-29 (in words) (HT-29 cancer cell line): possess in vitro cytotoxic activity
Cc1c(C)c(C)[c-](C)c1C.O=S(=O)([O-])C(F)(F)F.[Cl-].[Ir+3].c1cnc2c(c1)ccc1cccnc12 [[(η^5-C5Me5)Ir(phen)Cl](CF3SO3)] |  |  |  | inactive | 
Cc1c(C)c(C)[c-](C)c1C.O=S(=O)([O-])C(F)(F)F.[Cl-].[Ir+3].c1ccc2nc3c4cccnc4c4ncccc4c3nc2c1 [[(η^5-C5Me5)IrCl(dppz)](CF3SO3)] |  |  |  | possess in vitro cytotoxic activity | in vitro cytotoxic activity towards HT-29 (in words) (HT-29 cancer cell line): possess in vitro cytotoxic activity
[(Cp*)Rh(2-phenylbipyridyl)Cl]Cl [JS36] |  |  |  |  | relative activity against A2780 (in words) [6]: most active
[(Cp^xPh)Rh(2-Phenylbipyridyl)Cl]Cl [JS29] |  |  |  |  | relative activity against A2780 (in words) [6]: most active
[(Cp^xdiPh)Rh(2-phenylbipyridyl)Cl]Cl [JS39] |  |  |  |  | relative activity against A2780 (in words) [6]: most active
